Measured values reported in the SangsterLogP compilation.

Assay: method code SF-AS, from DOI: 10.1002/zfch.19810210618

Going from NNC(=O)Nc1ccc(I)cc1 to NNC(=O)Nc1ccc(Br)cc1, the logP falls from 1.24 to 1.

NNC(=O)Nc1ccccc1O and Cc1ccccc1NC(=O)NN are within 0.2 log units of each other in logP: 0.33 for the first, 0.36 for the second.

Compared with Cc1cccc(NC(=O)NN)c1, NNC(=O)Nc1cccc(Br)c1 is higher in logP: 0.68 for the first, 0.96 for the second.

First: NNC(=O)Nc1cccc(Cl)c1
Second: NNC(=O)Nc1cccc(O)c1
The logP of the first is higher: 0.83 for the first, -0.5 for the second.

Compared with NNC(=O)Nc1cccc2ccccc12, NNC(=O)Nc1ccccc1Cl is lower in logP: 0.9 for the first, 0.45 for the second.

Going from NNC(=O)Nc1cc(Cl)ccc1Cl to NNC(=O)Nc1ccc(Cl)cc1, the logP falls from 1.07 to 0.87.

Going from CCOc1ccc(NC(=O)NN)cc1 to COc1ccc(NC(=O)NN)cc1, the logP falls from 0.53 to 0.17.

Going from NNC(=O)Nc1ccccc1[N+](=O)[O-] to NNC(=O)Nc1ccccc1Br, the logP rises from -0.47 to 0.66.

NNC(=O)Nc1cccc(C(=O)O)c1 and NNC(=O)Nc1ccc(C(=O)O)cc1 are within 0.2 log units of each other in logP: -0.16 for the first, -0.21 for the second.

NNC(=O)Nc1ccc([N+](=O)[O-])cc1 and NNC(=O)Nc1cccc([N+](=O)[O-])c1 are within 0.2 log units of each other in logP: -0.18 for the first, -0.13 for the second.

First: COc1cccc(NC(=O)NN)c1
Second: COc1ccccc1NC(=O)NN
The logP of the first is higher: 0.17 for the first, -0.15 for the second.

Going from NNC(=O)Nc1ccccc1C(=O)O to NNC(=O)Nc1ccccc1, the logP rises from -0.49 to 0.16.

First: NNC(=O)Nc1ccc(O)cc1
Second: Cc1ccc(NC(=O)NN)cc1
The logP of the first is lower: -0.55 for the first, 0.69 for the second.
